Values quoted from earlier work, collected in article PMC8154576, “GPR120/FFAR4 Pharmacology: Focus on Agonists in Type 2 Diabetes Mellitus Drug Discovery” (Journal of Medicinal Chemistry, 2021).
Read-outs that look alike come from different tables or passages of the source. Marks after values point to notes of the source that are not given here.

Legend:
GPR120 [1] = tested on: GPR120
[2] = tested on: MCF-7 and MDA-MB-231 cell lines; parameters: method as in PMID 26821052
[3] = tested on: pancreatic cancer PANC-1 cells; parameters: method as in PMID 26282200
MDA-MB-231 cell line = tested on: MDA-MB-231 cell line; parameters: method as in PMID 28456993
[4] = tested on: rat’s anterior pituitary adenoma GH3 cells; parameters: method as in PMID 29843779
hGPR120 [5] = tested on: hGPR120
hGPR40 [6] = details: for EC50: read-out: hGPR40 EC50 (Ca2+)
[7] = tested on: Zucker diabetic fatty rats; parameters: method as in PMID 28148462; details: 2 weeks, vehicle 192 mg/dL
db/db mice = tested on: db/db mice; parameters: method as in PMID 28148462; details: at the same concentrations (10 and 100 mg/kg), vehicle 276 mg/dL
hGPR120 [8] = details: for EC50: read-out: hGPR120 EC50 (β-arr)
C57BL/6J mice = details: for reduction of plasma glucose, ΔAUC in IPGTT: C57BL/6J mice
[9] = not given; remark: listed apart in the source
mice = details: for reduction of plasma glucose, ΔAUC in OGTT: C57BL/6DIO mice
hGPR120 [10] = details: for EC50: Table 3, read-out: hGPR120 EC50 (IP1)
hGPR40 [11] = tested on: hGPR40
mGPR120 = tested on: mGPR120; parameters: method as in PMID 27815121
[12] = not given; remark: listed apart in the source
[13] = parameters: method as in PMID 24881566
[14] = tested on: human intestinal NCI-H716 cell line; parameters: method as in PMID 24881566
MIN6 cell line = tested on: MIN6 cell line; parameters: method as in PMID 24881566; details: glucose 25 mM, compared to glibenclamide
[15] = parameters: method as in PMID 27570890
GPR120 [16] = tested on: GPR120; parameters: method as in PMID 29206860; details: cAMP assay in a CHO cell line; read-out: EC50 increase of cAMP levels
lean mice = tested on: lean mice; parameters: method as in PMID 29206860; details: pretreatment
STC-1 cells = details: enteroendocrine STC-1 cell line
[17] = Table 2, read-out: hGPR120 EC50 (Ca2+)
[18] = Table 3, read-out: hGPR40 EC50 (IP1)

CCCCC/C=C\C/C=C\CCCCCCCC(=O)OC [1’s methyl ester]
GPR120 activity in vitro (GPR120 [1]): inactive in vitro

Cc1ccc(S(=O)(=O)NC2c3ccccc3Oc3ccccc32)cc1 [Compound 5]
migration induced by 1 (MDA-MB-231 cell line): inhibited

CC(C)=CCC/C(C)=C/CC/C(C)=C/Cc1c(O)cc(C)c(C(=O)O)c1O [Compound 7, grifolic acid]
necrosis of GH3 cells [4]: dose- and time-dependently induced the necrosis

COc1ccc(C(F)(F)F)cc1COc1ccc(CCC(=O)O)cc1C [Compound 19]
selectivity GPR120/GPR40, human (hGPR120 [5]): 40 fold
EC50 (hGPR120 [5]; Table 1, read-out: hGPR120 EC50 (Ca2+)): 299 nM
EC50 (hGPR40 [6]; Table 1): 11800 nM
selectivity GPR120/GPR40, mouse (mouse GPR120): 80 fold
oral bioavailability (C57BL/6J mice): excellent oral bioavailability
whole blood glucose levels ([7]; 10 mg/kg): 151 mg/dL
whole blood glucose levels ([7]; 100 mg/kg): 139 mg/dL
glucose levels (db/db mice): 106 mg/dL

CCc1ccc(-c2noc(C(F)(F)F)c2COc2c(F)cc(CCC(=O)O)cc2F)cc1 [Compound 20]
EC50 (hGPR120 [5]; [17]): 57 nM
EC50 (hGPR120 [8]; Table 2): 60 nM
pharmacokinetic (PK) profile: good pharmacokinetic (PK) profile
reduction of plasma glucose, ΔAUC in IPGTT (C57BL/6J mice; 1 mg/kg): 30%
reduction of plasma glucose, ΔAUC in IPGTT (C57BL/6J mice; 3 mg/kg): 35%
reduction of plasma glucose, ΔAUC in IPGTT (C57BL/6J mice; 10 mg/kg): 54%

O=C(O)CCc1cc(F)c(OCc2c(-c3ccc(Cl)cc3F)nsc2C(F)(F)F)c(F)c1 [Compound 21]
EC50 (hGPR120 [5]; [17]): 42 nM
EC50 (hGPR120 [8]; Table 2): 143 nM
EC50 (hGPR40 [6]; Table 2): > 5000 nM
pharmacokinetic profile [9]: good pharmacokinetic profile
reduction of plasma glucose, ΔAUC in OGTT (mice; 1 mg/kg): 61%
reduction of plasma glucose, ΔAUC in OGTT (mice; 3 mg/kg): 83%

O=C(O)CCc1cc(F)c(OCc2c(C(F)(F)F)ccn2-c2ccc(Cl)cc2)c(F)c1 [Compound 22]
EC50 (hGPR120 [5]; [17]): 80 nM
GPR120 selectivity over GPR40, human (hGPR120 [5]; calcium assay): 42 fold
EC50 (hGPR120 [5]; low-expressing endogenous HT-29 cell line, read-out: EC50 hGPR120 calcium assay): 137 nM
EC50 (hGPR120 [8]; Table 2): 69 nM
EC50 (hGPR40 [6]; Table 2): 3340 nM
GPR120 selectivity over GPR40, mouse (mouse GPR120; calcium assay): 18 fold
EC50 (mouse GPR120; read-out: EC50 GPR120 calcium assay in mouse): 193 nM
clearance ([9]; mouse, rat, and dog): low clearance
half-life ([9]; mouse, rat, and dog): suitable half-life
reduction in glucose levels in OGTT (mice; diet-induced obese mice, 3 mg/kg, vs saxagliptin 1 mg/kg): comparable to saxagliptin

O=C(O)CCc1cc2cc(-c3cc(C(F)(F)F)ccc3F)ccc2o1 [Compound 23]
percentage of receptor activation, hGPR120 (hGPR120 [10]): 73%
selectivity over hGPR40 (hGPR120 [10]): 29 fold
EC50 (hGPR120 [10]): 63 nM
EC50 (hGPR40 [11]; read-out: IP1 EC50 GPR40): 1830 nM
percentage of receptor activation, mGPR120 (mGPR120): 75%
PK properties (oral bioavailability, half-life, plasma clearance) (mouse): suitable PK properties
blood glucose levels in OGTT (mice; wild-type and GPR120 KO mice, 30 and 100 mg/kg): acute reduction of blood glucose levels

COC1CC(Oc2cc(F)c(F)c(-c3ccc4c(c3)CCC(CCC(=O)O)O4)c2)C1 (centres unmarked) [Compound 24]
EC50 (hGPR120 [8]; Table 3): 24 nM
EC50 (hGPR120 [10]): 35 nM
EC50 (hGPR40 [11]; [18]): > 10000 nM
half-life ([9]; several species): long half-life
oral bioavailability ([9]; several species): high oral bioavailability
in vivo efficacy in OGTT (mice): good in vivo efficacy
glucose levels in OGTT (mice; 3 and 10 mg/kg): dose-dependently reduced glucose levels

Fc1ccc(OC2CCC2)cc1-c1ccc2c(c1)CC[C@H](CCc1nnn[nH]1)O2 [Compound 25]
EC50 (hGPR120 [8]; Table 3): 84 nM
EC50 (hGPR120 [10]): 220 nM
EC50 (hGPR40 [11]; [18]): > 10000 nM
in vivo efficacy in OGTT (mice): good in vivo efficacy

O=C(O)CC1CCC2(CC1)CCN(c1cc(OC(F)(F)F)ccc1Cl)CC2 [Compound 26]
EC50 (hGPR40 [11]; [18]): > 10000 nM
unbound clearance ([9]; rat, mouse, dog, and Rhesus): too high unbound clearance
whole blood glucose levels in OGTT (mice; lean mice (wild-type/GPR120 KO), 30 and 100 mg/kg): dose-dependently reduced whole blood glucose levels
insulin resistance (HOMA-IR) (DIO mice; hyperinsulinemic-euglycemic DIO mouse clamp, days 14 and 28): reduction in insulin resistance

Cc1ccc(-n2nc(C)c3cnc(-c4ccc([C@@H]5C[C@H]5C(=O)O)cc4F)cc32)nc1 [Compound 28]
EC50 (hGPR120 [5]; Table 3, read-out: hGPR120 EC50 (Ca2+)): 740 nM
EC50 (hGPR40 [6]; Table 3): > 100000 nM
EC50 (muGPR40; FLIPR format, overexpressed mouse GPR40 in cell line, unit inferred): > 100000 nM
oral exposure [9]: moderate oral exposure
decrease in oral glucose excursion in OGTT (mice; C57BL/6J mice): 45%
effect on glucose excursion in OGTT (mice; GPR120 KO mice): no effect
reduction of glucose excursion in OGTT (mice; wild-type mice): 47%
selectivity over 30 several targets [12]: good selectivity

OCCCc1c(F)cc(OCc2c(-c3ccc(Cl)cc3)csc2C(F)(F)F)cc1F [Compound 30]
outcome in IPGTT (C57BL/6J mice; GPR120 C57BL6 mice): positive outcomes
outcome in OGTT (mice; GPR120 DIO mice): positive outcomes

COc1ccc(S(=O)(=O)Nc2c(C)cc(C)cc2C)cc1 [Compound 31]
hGPR120 pEC50 (Ca2+) (hGPR120 [5]; Table 4): 6.3 ^d
hGPR40 pEC50 (Ca2+) (hGPR40 [6]; Table 4): <4.5 ^d
solubility in simulated intestinal fluid (FASSIF) [13]: weak solubility
GLP-1 secretion [14]: evoked GLP-1 secretion
insulin output in GSIS (MIN6 cell line): dose-dependently increased insulin output
selectivity for GPR120 over more than 65 targets, including GPR40, GPR43, GPR41 [12]: at least 100 fold

O=S1(=O)c2ccccc2CN1c1cc(F)cc(Oc2ccccn2)c1 [Compound 32]
hGPR120 pEC50 (Ca2+) (hGPR120 [5]; Table 4): 6.63 ^d
hGPR120 pEC50 (β-arr) (hGPR120 [8]; Table 4): 6.91 ^d
selectivity for GPR120 over GPR40 (GPR120 [1]): > 300 fold
glucose levels in OGTT (mice; C57BL6 mice, 10 mg/kg orally, compared to vehicle control): decrease in glucose levels
decrease in body weight, chronic study (DIO mice; DIO wild-type mice): 7–9%
glucose levels, chronic study (DIO mice; DIO wild-type mice): reduced glucose levels
effect in chronic study (DIO mice; mice lacking GPR120): no effect
solubility in PBS [15]: relatively low solubility

C#Cc1cc(Oc2cccnc2)cc(N2Cc3ccccc3S2(=O)=O)c1 [Compound 33]
EC50 (hGPR120 [5]; Table 4, read-out: hGPR120 EC50 (Ca2+)): 120 nM
activity against mGPR40 (muGPR40): no activity
EC50 (GPR120 [16]): 60 nM
glucose levels in OGTT (mice; lean male mice): reduce dose-dependently glucose levels
insulin concentration in IVGTT (lean mice): increase of insulin concentration
GLP-1 secretion (STC-1 cells): boost GLP-1 secretion

N#C[C@@H]1C[C@@H]2C[C@@H]2N1C(=O)[C@@H](N)C12CC3CC(CC(O)(C3)C1)C2 [saxagliptin]
reduction of plasma glucose, ΔAUC in OGTT (mice; 1 mg/kg): 87%
